Assay results taken from US20040043903A1, “2-Aryl-5-trifluoromethylpyridines” (priority 2000, published 2004).

Assays:
Test in all cases: post-emergence herbicidal action, greenhouse experiments
[1] = test system: ECHCG; assay type: in vivo, barnyardgrass
From the text: (§1) The culture containers used were plastic pots with loamy sand with approximately 3.0% humus as substrate. The seeds of the test plants were sown separately for each species.
(§2) For the purposes of the post-emergence treatment, the test plants were first grown to a height of 3 to 15 cm, depending on the growth habit, and only then treated with the active ingredients which were suspended or emulsified in water. To this end, the test plants were either sown directly and grown on in the same containers, or else they were first grown separately as seedlings and then transplanted into the experimental containers a few days prior to treatment. The application rate for the post-emergence treatment was 31.3, 15.6, 7.8 and/or 3.9 g of a.s./ha.
(§3) The plants were kept at temperatures of 10-25° C. or 20-35° C., depending on the species. The experimental period extended over 2 to 4 weeks. During this time, the plants were tended, and their response to the individual regimes were evaluated.
(§4) For the evaluation, a scale of 0 to 100 was used. 100 means no emergence of the plants, or complete destruction of at least the aerial parts, and 0 means no damage or normal course of growth.
(§5) The plants used in the greenhouse experiments consisted of the following species: […]

[2] = test system: BIDPI; assay type: in vivo, hairy beggarticks; conditions: for Harmful plant/action (post-emergence herbicidal action): scale 0 to 100
From the text: as §1
(§6) For the purposes of the post-emergence treatment, the test plants were first grown to a height of 3 to 15 cm, depending on the growth habit, and only then treated with the active ingredients which were suspended or emulsified in water. To this end, the test plants were either sown directly and grown on in the same containers, or else they were first grown separately as seedlings and then transplanted into the experimental containers a few days prior to treatment. […]
as §3, §4, §5

[3] = test system: SETFA; assay type: in vivo, giant foxtail; conditions: for Harmful plant/action (post-emergence herbicidal action): scale 0 to 100
From the text: as §1, §6, §3, §4, §5

[4] = test system: CHEAL; assay type: in vivo, lambsquarters; conditions: for Harmful plant/action (post-emergence herbicidal action): scale 0 to 100
From the text: as §1, §2, §3, §4, §5

[5] = test system: BRAPL; assay type: in vivo, alexandergrass
From the text: as §1, §2, §3, §4, §5

[6] = 31.3 and 15.6 g of a.s./ha, compared with Comparative Example VA
[7] = application rate 15.6 g/ha a.s.
[8] = application rate 31.3 g/ha a.s.
[9] = 7.8 and 3.9 g of a.s./ha, compared with Comparative Example VB
[10] = 7.8 and 3.9 g of a.s./ha, compared with Comparative Example VC

COc1cc(-c2ncc(C(F)(F)F)c(C)c2Cl)c(F)cc1Cl [IAa.3, 2-(2-fluoro-4-chloro-5-methoxyphenyl-1-yl)-3-chloro-4-methyl-5-trifluoromethylpyridine]
action against the harmful plant compared with Comparative Example [1, 6]: considerably better action
Harmful plant/action (post-emergence herbicidal action) ([1]; application rate 15.6 g/ha a.s., scale 0 to 100): 90
Harmful plant/action (post-emergence herbicidal action) ([1]; application rate 31.3 g/ha a.s., scale 0 to 100 (100 = complete destruction, 0 = no damage)): 100
action against the harmful plant compared with Comparative Example [2, 6]: considerably better action
Harmful plant/action (post-emergence herbicidal action) [2, 7]: 60
Harmful plant/action (post-emergence herbicidal action) [2, 8]: 60
action against the harmful plant compared with Comparative Example [3, 6]: considerably better action
Harmful plant/action (post-emergence herbicidal action) [3, 7]: 95
Harmful plant/action (post-emergence herbicidal action) [3, 8]: 100
action against the harmful plant compared with Comparative Example [4, 6]: considerably better action
Harmful plant/action (post-emergence herbicidal action) [4, 7]: 100
Harmful plant/action (post-emergence herbicidal action) [4, 8]: 100

C#CCOc1cc(-c2ncc(C(F)(F)F)c(C)c2Cl)c(F)cc1Cl [IAa.10, 2-(2-Fluoro-4-chloro-5-propargyloxyphenyl)-3-chloro-4-methyl-5-trifluoromethylpyridine]
action against the harmful plant compared with Comparative Example [1, 9]: considerably better action
Harmful plant/action (post-emergence herbicidal action) ([1]; application rate 3.9 g/ha a.s., scale 0 to 100): 70
Harmful plant/action (post-emergence herbicidal action) ([1]; application rate 7.8 g/ha a.s., scale 0 to 100): 85
action against the harmful plant compared with Comparative Example [2, 9]: considerably better action
Harmful plant/action (post-emergence herbicidal action) ([2]; application rate 3.9 g/ha a.s.): 100
Harmful plant/action (post-emergence herbicidal action) ([2]; application rate 7.8 g/ha a.s.): 100
action against the harmful plant compared with Comparative Example [3, 9]: considerably better action
Harmful plant/action (post-emergence herbicidal action) ([3]; application rate 3.9 g/ha a.s.): 98
Harmful plant/action (post-emergence herbicidal action) ([3]; application rate 7.8 g/ha a.s.): 98
Harmful plant/action (post-emergence herbicidal action) ([4]; application rate 3.9 g/ha a.s.): 100
Harmful plant/action (post-emergence herbicidal action) ([4]; application rate 7.8 g/ha a.s.): 100

CCc1nc2c(Cl)cc(F)c(-c3ncc(C(F)(F)F)c(C)c3Cl)c2o1 [ICe.3, 4-Chloro-7-[3-chloro-4-methyl-5-(trifluoromethyl)-2-pyridinyl]-2-ethyl-6-fluoro-1,3-benzoxazole]
action against the harmful plant compared with Comparative Example [2, 10]: considerably better action
post-emergence herbicidal action, BIDPI ([2]; application rate 3.9 g/ha a.s.): 100
post-emergence herbicidal action, BIDPI ([2]; application rate 7.8 g/ha a.s.): 100
action against the harmful plant compared with Comparative Example [3, 10]: considerably better action
post-emergence herbicidal action, SETFA ([3]; application rate 3.9 g/ha a.s.): 100
post-emergence herbicidal action, SETFA ([3]; application rate 7.8 g/ha a.s.): 100
action against the harmful plant compared with Comparative Example [5, 10]: considerably better action
post-emergence herbicidal action, BRAPL ([5]; application rate 3.9 g/ha a.s.): 80
post-emergence herbicidal action, BRAPL ([5]; application rate 7.8 g/ha a.s.): 90

CCc1nc2c(Cl)cc(F)c(-c3ncc(C(F)(F)F)cc3Cl)c2o1 [VC, reference compound]
post-emergence herbicidal action, BIDPI ([2]; application rate 3.9 g/ha a.s.): 50
post-emergence herbicidal action, BIDPI ([2]; application rate 7.8 g/ha a.s.): 55
post-emergence herbicidal action, SETFA ([3]; application rate 3.9 g/ha a.s.): 90
post-emergence herbicidal action, SETFA ([3]; application rate 7.8 g/ha a.s.): 95
post-emergence herbicidal action, BRAPL ([5]; application rate 3.9 g/ha a.s.): 40
post-emergence herbicidal action, BRAPL ([5]; application rate 7.8 g/ha a.s.): 55

C#CCN1C(=O)COc2cc(F)c(-c3ncc(C(F)(F)F)cc3Cl)cc21 [VD, reference compound]
post-emergence herbicidal action, BIDPI ([2]; application rate 1.9 g/ha a.s.): 50
post-emergence herbicidal action, BIDPI ([2]; application rate 3.9 g/ha a.s.): 55
post-emergence herbicidal action, SETFA ([3]; application rate 1.9 g/ha a.s.): 60
post-emergence herbicidal action, SETFA ([3]; application rate 3.9 g/ha a.s.): 90
